The nature of series [1]: TEM analysis of peptide fibrils. Conditions: 30 independent measurements. It is filed as physicochemical. How it is done:
FIG. 4. Fibril visualization of β-hairpin peptide hydrogels. Transmission Electron Microscopy (TEM) images of peptide fibrils and frequency distributions determined from 30 independent measurements (scale bar=100 nm).
Transmission electron microscopy (TEM) analysis. The hydrogel nanostructure of the peptide gels was observed using a Hitachi H-7650 transmission electron microscope at a voltage of 80 kV. A 1 wt % solution of peptide and an equal volume of buffer (50 mM HEPES containing 300 mM NaCl, pH 7.4) was mixed and incubated overnight at 37° C. to allow for gelation. The next day, samples for TEM analysis were prepared by suspending 5 μL of the resulting peptide gel in 195 μL of water to yield a 40-fold dilution. Small amounts (5 μL) of each diluted gel solution were applied to separate carbon coated copper grids. After 1 min, the grid was washed with water. Then, a 1 w/v % uranyl acetate aqueous solution was placed on each grid for negative staining. Excess staining solution was blotted away, left to air dry, and the grids were imaged immediately.

In series [2] the test system is human dermal fibroblasts (HDFs). The series can be described thus: 2D cell culture of HDFs on gel surfaces. In kind it is cell-based. Conditions: Essential 8 Medium or serum-free DMEM. How it is done:
2D cell culture on peptide gels. Peptides were initially dissolved in water at 1 wt % on ice and mixed with an equal volume of ice-cold 2×HEPES buffer (50 mM HEPES, 300 mM NaCl, pH 7.4). The peptide solution (50 μL per well) was transferred to a non-tissue culture treated 96-well plates and incubated at 37° C. to initiate gelation. After 1 hour, HDFs (2×10^4 cells per 200 μL, per well) in serum-free DMEM, 10% FBS supplemented DMEM, or Essential 8 Medium (Thermo Fisher Scientific) were seeded on the peptide gels and cultured for 4 days. Bovine type I collagen gels (0.3 wt %, 50 μL per well) were prepared in 96-well plates following manufacturer's instructions.
Cell viability assay. Cell viability was evaluated by live and dead cell staining after 2D and 3D cell culture. Serum-free DMEM containing 1 μM calcein-AM and 2 μM ethidium homodimer-1 was added to the cells (200 μL per well for 2D culture and 500 μL each to the top and bottom of the gels for 3D culture). After incubation at 37° C. for 30 min, live and dead cells were visualized using EVOS FL Auto Cell Imaging System (Thermo Fisher Scientific). For the pseudo-colored composite image of varying heights of encapsulated cells, images of the live-stained cells were captured every 5 μm of height. Then Z-stack images for each 100 μm were flattened using the EVOS software, and the flattened images were pseudo-colored and merged using ImageJ.
Cell proliferation assay. A cell proliferation assay was performed using Cell Counting Kit-8 (CCK-8, Dojindo Molecular Technologies) for 2D and 3D cell culture. Serum-free DMEM containing 10% CCK-8 was added to the gels (200 μL per well for 2D culture; 500 μL to the top of the gels for 3D culture) and incubated for 2 hours at 37° C. Subsequently, media were transferred to 96-well plates (150 μL per well) and their absorbance measured at 450 nm relative to control viabilities from day 0 for 2D cell culture and day 1 for 3D cell culture. Experiments were performed in triplicate.
Cytoskeleton staining. For 2D cell culture, the peptide and collagen gels (70 μL) were prepared as described above on the glass bottom of 35 mm dishes (7 mm glass diameter, MatTek). HDFs in Essential 8 Medium (1.5×10^5 cells per 3 mL) were added to the dishes and incubated at 37° C. for 24 hours. Cells were fixed and permeabilized with 4% paraformaldehyde and 0.1% Triton X-100 in PBS for 15 min, and then blocked with 1% BSA in PBS. Cells were incubated with anti-vinculin antibody (hVIN-1, Sigma) for 1 hour at room temperature. Then, a goat anti-mouse IgG (H+L) cross-adsorbed secondary antibody, Rhodamine Red-X (2 μg mL^−1, Thermo Fisher Scientific), Alexa Fluor 488 phalloidin (5 units mL^−1, Thermo Fisher Scientific), and Hoechst 33342 (5 μg mL^−1, Invitrogen) in PBS were added to the dishes and incubated for 1 hour at room temperature. After washing, cells were visualized using an EVOS FL Auto Cell Imaging System.

Series [3] in a line: Oscillatory rheology of protein-loaded AcVES3 hydrogels. In kind it is physicochemical. Conditions: at 60 min; 0.5 wt % AcVES3 hydrogel loaded with protein. Here is the method: FIGS. 12A and 12B. […] (12A) Dynamic time sweep experiments. Hydrogels were set for 60 min, followed by 30 s of high strain, then a recovery period of 60 min. (12B) Storage moduli after 60 min. Bars outlined in black represent post shear storage moduli after 60 min recovery.
Oscillatory Rheology. Rheological assessment was conducted on a […] AR-G2 rheometer using a 25 mm stainless steel parallel geometry. A representative set of proteins was used to determine whether the fusion domain affected the material properties of the AcVES3 hydrogels. […] This solution was immediately applied to the center of the plate and the upper geometry was lowered to a gap height of […]. The temperature was increased from 5° C. to 37° C. over 100 s at a constant angular frequency of 6 rad s^−1 and 0.2% strain. The storage and loss moduli were monitored for 60 min at a constant angular frequency of 6 rad s^−1 and 0.2% strain at 37° C. […] The moduli were monitored for 60 min (6 rad s^−1, 0.2% strain, 37° C.), followed by the application of 1000% strain for 30 s to shear the gel, after which the strain was reduced to 0.2% and the gel was allowed to recover for 60 min (6 rad s^−1, 0.2% strain).

The substance Ac-VEVSVSVEV^DPPTEVSVEVEV-NH2 [AcVES3] gave an average fibril width in series [1] of 3.1±0.4 nm. The “cell adhesion of HDFs on gel surface” value in series [2] (day 1) was “adhered”; in series [2] (day 4), “most of the cells detached”.
“EGFP: fluorescent protein EGFP, SEQ ID NO: 19, model heterologous protein with net negative charge” showed a storage moduli in series [3] of about 1000 Pa.

The values above are taken from US11661439B2, “Peptide hydrogels and use thereof” (The United States of America, as represented by the …, priority 2017, dated 2023).
